The results in this text go back to ChEMBL document CHEMBL1147791, “Polyamines and the NMDA receptor: modifying intrinsic activities with aromatic substituents” (Bioorg Med Chem Lett, 2006).

Type in all cases: protein-complex assay
Assay [1] deals with Glutamate NMDA receptor. The assay is described as follows: Inhibition of [3H]MK-801 binding to rat NMDA receptor.
Assay [2] addresses T1, Glutamate NMDA receptor (Rattus norvegicus) (UniProt P35439+Q00959+Q00960+Q00961+Q62645+Q8VHN2+Q9R1M7). The assay is described as follows: Attenuation at rat NMDA receptor assessed as ratio of inhibition of [3H]MK-801 binding to NMDA receptor in presence to absence of spermine.
Assay [3] deals with T1, Glutamate NMDA receptor (Rattus norvegicus). The assay is described as follows: (§1) Stimulation of [3H]MK-801 binding to rat NMDA receptor.
Assay [4] deals with Glutamate NMDA receptor. The assay is described as §1.

As a reminder, the IC50 is the concentration at which inhibition is half-maximal. Lower therefore signals greater potency in that assay. With `NCCCCN(CCCN)Cc1ccccc1`, the 50% inhibitory concentration (IC50) at Glutamate NMDA receptor [1] was above 300 µM.

At Glutamate NMDA receptor [1], `NCCCN(CCCCN(CCCNCCCc1ccccc1)CCCc1ccccc1)CCCc1ccccc1` showed an IC50 of 13.1 µM. Moreover, the Ratio IC50 in assay [2] was determined as 1.44.

For the compound `NCCCN(CCCCN(CCCN)Cc1ccccc1)Cc1ccccc1`, at Glutamate NMDA receptor [1], the IC50 is 38 µM. Moreover, the Ratio IC50 in assay [2] was 4.3.

On Glutamate NMDA receptor [1], `CC(C)NCCCN(CCCCN(CCCN)Cc1ccc2ccccc2c1)Cc1ccc2ccccc2c1` displayed a half-inhibitory concentration (IC50) of 14 µM. Also, the Ratio IC50 in assay [2] stood at 1.96.

For the compound `NCCCNCCCCN(CCCN)Cc1ccc2ccccc2c1`, the IC50 at Glutamate NMDA receptor [1] stood at 58 µM. In addition, the Ratio IC50 in assay [2] stood at 1.45.

With `O=C(NCCCCNCCCNC(=O)OCc1ccccc1)OCc1ccccc1`, the IC50 at Glutamate NMDA receptor [1] came out at 56 µM. Moreover, the Ratio IC50 in assay [2] is above 10.

Take `c1ccc(CNCCCNCCCCNCCCNCc2ccccc2)cc1`: the IC50 on Glutamate NMDA receptor [1] came to 6.12 µM. Besides, in assay [2], the Ratio IC50 was found to be 2.27.

For `O=C(NCCCCNCCCNC(=O)c1ccccc1)c1ccccc1`, the IC50 at Glutamate NMDA receptor [1] was above 300 µM.

`c1ccc2cc(CNCCCNCCCCNCCCNCc3ccc4ccccc4c3)ccc2c1` returned an IC50 at Glutamate NMDA receptor [1] of 4.7 µM. Also, the Ratio IC50 in assay [2] is 2.84.

On Glutamate NMDA receptor [1], `c1ccc(CCCNCCCN(CCCCN(CCCNCCCc2ccccc2)CCCc2ccccc2)CCCc2ccccc2)cc1` yielded an IC50 of 8.4 µM. For the same compound, the Ratio IC50 in assay [2] turned out to be 1.49.

`CC(C)(C)OC(=O)N(CCCN)CCCCN` gave an IC50 on Glutamate NMDA receptor [1] above 300 µM.

The compound `c1ccc2cc(CN(CCCCNCCCN(Cc3ccc4ccccc4c3)Cc3cccc4ccccc34)Cc3cccc4ccccc34)ccc2c1` returned a half-maximal inhibitory concentration (IC50) on Glutamate NMDA receptor [1] of 14.3 µM. The Ratio IC50 in assay [2] came to 1.66.

The compound `c1ccc(CCCN(CCCNCCCCNCCCN(CCCc2ccccc2)CCCc2ccccc2)CCCc2ccccc2)cc1` displayed a concentration for half-maximal inhibition (IC50) on Glutamate NMDA receptor [1] of 3.9 µM. Also, the Ratio IC50 in assay [2] was determined as 1.58.

For the compound `N=C(N)NCCCN(CCCCN(CCCN)CCCc1ccccc1)CCCc1ccccc1`, the IC50 on Glutamate NMDA receptor [1] is 13 µM. Moreover, the Ratio IC50 in assay [2] amounted to 1.5.

For `c1ccc2cc(CN(CCCNCCCCNCCCN(Cc3ccc4ccccc4c3)Cc3ccc4ccccc4c3)Cc3ccc4ccccc4c3)ccc2c1`, at Glutamate NMDA receptor [1], the IC50 turned out to be 8.7 µM. Further, the Ratio IC50 in assay [2] is 1.32.

On to `NCCCCN(CCCN)CCCc1ccccc1`, for which the IC50 at Glutamate NMDA receptor [1] is above 300 µM.

The compound `N=C(N)NCCCN(CCCCN(CCCNC(=N)N)CCCc1ccccc1)CCCc1ccccc1` gave an IC50 at Glutamate NMDA receptor [1] of 11.2 µM. For the same compound, in assay [2], the Ratio IC50 was 0.63.

Compound `NCCCCN(CCCN)C(=O)c1ccccc1` returned an IC50 at Glutamate NMDA receptor [1] of 82 µM. In addition, the Ratio IC50 in assay [2] is above 10.

For `CC(C)NCCCN(CCCCN(CCCNC(C)C)Cc1ccc2ccccc2c1)Cc1ccc2ccccc2c1`, the IC50 on Glutamate NMDA receptor [1] amounted to 44.6 µM. For the same compound, the Ratio IC50 in assay [2] came to 0.48.

Take `O=C(Cc1ccccc1)NCCCNCCCCNCCCNC(=O)Cc1ccccc1`: at Glutamate NMDA receptor [1], the IC50 is 103 µM. Moreover, the Ratio IC50 in assay [2] is above 10.

For `NCCCCN(CCCN)Cc1ccc2ccccc2c1`, at Glutamate NMDA receptor [1], the IC50 worked out at 9.8 µM. For the same compound, the Ratio IC50 in assay [2] was 13.1.

The term EC50 denotes the midpoint of the concentration-response curve. In assay [3], `NCCCNCCCCN(CCCN)Cc1ccccc1` came in with an Activity of 28%. For the same compound, the EC50 at Glutamate NMDA receptor [4] came out at 2.7 µM. This compound displayed an IC50 on Glutamate NMDA receptor [1] above 300 µM.

On to `NCCCCN(CCCN)C1c2ccccc2CCc2ccccc21`, for which the IC50 on Glutamate NMDA receptor [1] amounted to 14.2 µM. In addition, the Ratio IC50 in assay [2] was determined as 5.1.

For `NCCCN(CCCCN(CCCN)Cc1ccc2ccccc2c1)Cc1ccc2ccccc2c1`, the IC50 at Glutamate NMDA receptor [1] was found to be 9.1 µM. For the same compound, in assay [2], the Ratio IC50 is 2.2.

Consider `NCCCCN(CCCN)C(=O)OCc1ccccc1`, for which, on Glutamate NMDA receptor [1], the IC50 was found to be 17.6 µM. In assay [2], the Ratio IC50 worked out at 67.

Take `NCCCN(CCCCN(CCCN)CCCc1ccccc1)CCCc1ccccc1`: the IC50 on Glutamate NMDA receptor [1] is 26.7 µM. In addition, in assay [2], the Ratio IC50 came out at 2.6.

Regarding `NCCCNCCCCN(CCCN)CCCc1ccccc1`, the Activity in assay [3] was found to be 26%. The compound also came in with an EC50 on Glutamate NMDA receptor [4] of 1.8 µM. For the same compound, the IC50 on Glutamate NMDA receptor [1] was determined as 182 µM. Further, the Ratio IC50 in assay [2] was found to be 0.93.

Take `NCCCNCCCCNCCCNCCCc1ccccc1`: the IC50 at Glutamate NMDA receptor [1] worked out at 25.6 µM. Also, the Ratio IC50 in assay [2] was 1.43.

`NCCCN(CCCCN(CCCN)C(=O)OCc1ccccc1)C(=O)OCc1ccccc1` came in with an IC50 at Glutamate NMDA receptor [1] of 17.2 µM. Besides, in assay [2], the Ratio IC50 is 4.7.

The compound `c1ccc(CCCNCCCNCCCCNCCCNCCCc2ccccc2)cc1` registered an IC50 at Glutamate NMDA receptor [1] of 7.4 µM. In assay [2], the Ratio IC50 worked out at 0.92.

Regarding `c1ccc2c(CNCCCCNCCCNCc3cccc4ccccc34)cccc2c1`, the IC50 at Glutamate NMDA receptor [1] came to 4.37 µM. In addition, the Ratio IC50 in assay [2] came to 2.2.

At Glutamate NMDA receptor [1], `c1ccc(CCCNCCCCN(CCCNCCCc2ccccc2)CCCc2ccccc2)cc1` yielded an IC50 of 9.5 µM. In addition, the Ratio IC50 in assay [2] stood at 2.03.

The compound `c1ccc(CNCCCCNCCCNCc2ccccc2)cc1` displayed an IC50 on Glutamate NMDA receptor [1] of 6.2 µM. The Ratio IC50 in assay [2] was determined as 5.9.

Take `CC(C)(C)OC(=O)N(CCCN)CCCCN(CCCN)C(=O)OC(C)(C)C`: the half-maximal inhibitory concentration (IC50) on Glutamate NMDA receptor [1] worked out at 6680 µM. Moreover, the Ratio IC50 in assay [2] is 5.3.
